Measured values as given in ChEMBL document CHEMBL2177090, “Ceric ammonium nitrate-promoted oxidative coupling reaction for the synthesis and evaluation of a series of anti-tumor amide anhydrovinblastine analogs” (Bioorg Med Chem Lett, 2012).

Tested on: HeLa
Assay: Cytotoxicity against human HeLa cells by MTT assay
Format: functional, cell-based

SMILES | IC50
CCC1=C[C@H]2CN(CCc3c([nH]c4ccccc34)[C@@](C(=O)OC)(c3cc4c(cc3OC)N(C)[C@H]3[C@@](O)(CCNC(C)=O)[C@H](OC(C)=O)[C@]5(CC)C=CCN6CC[C@]43[C@@H]65)C2)C1 | 57 nM
CCC(=O)NCC[C@@]1(O)[C@H](OC(C)=O)[C@]2(CC)C=CCN3CC[C@@]4(c5cc([C@@]6(C(=O)OC)C[C@H]7C=C(CC)CN(CCc8c6[nH]c6ccccc86)C7)c(OC)cc5N(C)[C@@H]14)[C@@H]32 | 110 nM
CCC1=C[C@H]2CN(CCc3c([nH]c4ccccc34)[C@@](C(=O)OC)(c3cc4c(cc3OC)N(C)[C@H]3[C@@](O)(CCNC(=O)C(C)C)[C@H](OC(C)=O)[C@]5(CC)C=CCN6CC[C@]43[C@@H]65)C2)C1 | 26 nM
CCC1=C[C@H]2CN(CCc3c([nH]c4ccccc34)[C@@](C(=O)OC)(c3cc4c(cc3OC)N(C)[C@H]3[C@@](O)(CCNC(=O)CC(C)C)[C@H](OC(C)=O)[C@]5(CC)C=CCN6CC[C@]43[C@@H]65)C2)C1 | 185 nM
CCC1=C[C@H]2CN(CCc3c([nH]c4ccccc34)[C@@](C(=O)OC)(c3cc4c(cc3OC)N(C)[C@H]3[C@@](O)(CCNC(=O)C5CC5)[C@H](OC(C)=O)[C@]5(CC)C=CCN6CC[C@]43[C@@H]65)C2)C1 | 142 nM
CCC1=C[C@H]2CN(CCc3c([nH]c4ccccc34)[C@@](C(=O)OC)(c3cc4c(cc3OC)N(C)[C@H]3[C@@](O)(CCNC(=O)c5ccccc5)[C@H](OC(C)=O)[C@]5(CC)C=CCN6CC[C@]43[C@@H]65)C2)C1 | 107 nM
CCC1=C[C@H]2CN(CCc3c([nH]c4ccccc34)[C@@](C(=O)OC)(c3cc4c(cc3OC)N(C)[C@H]3[C@@](O)(CCNC(=O)c5ccc(C)cc5)[C@H](OC(C)=O)[C@]5(CC)C=CCN6CC[C@]43[C@@H]65)C2)C1 | 259 nM
CCC1=C[C@H]2CN(CCc3c([nH]c4ccccc34)[C@@](C(=O)OC)(c3cc4c(cc3OC)N(C)[C@H]3[C@@](O)(CCNC(=O)c5cccc(OC)c5)[C@H](OC(C)=O)[C@]5(CC)C=CCN6CC[C@]43[C@@H]65)C2)C1 | 169 nM
CCC1=C[C@H]2CN(CCc3c([nH]c4ccccc34)[C@@](C(=O)OC)(c3cc4c(cc3OC)N(C)[C@H]3[C@@](O)(CCNC(=O)c5ccccc5OC)[C@H](OC(C)=O)[C@]5(CC)C=CCN6CC[C@]43[C@@H]65)C2)C1 | 234 nM
CCC1=C[C@H]2CN(CCc3c([nH]c4ccccc34)[C@@](C(=O)OC)(c3cc4c(cc3OC)N(C)[C@H]3[C@@](O)(CCNC(=O)c5ccccc5F)[C@H](OC(C)=O)[C@]5(CC)C=CCN6CC[C@]43[C@@H]65)C2)C1 | 247 nM
CCC1=C[C@H]2CN(CCc3c([nH]c4ccccc34)[C@@](C(=O)OC)(c3cc4c(cc3OC)N(C)[C@H]3[C@@](O)(CCNC(=O)c5ccco5)[C@H](OC(C)=O)[C@]5(CC)C=CCN6CC[C@]43[C@@H]65)C2)C1 | 18 nM
CCC1=C[C@@H]2CN(C1)Cc1c([nH]c3ccccc13)[C@@](C(=O)OC)(c1cc3c(cc1OC)N(C)[C@H]1[C@@](O)(C(=O)OC)[C@H](OC(C)=O)[C@]4(CC)C=CCN5CC[C@]31[C@@H]54)C2 [VINORELBINE] | 27 nM
